Among the data in ChEMBL document CHEMBL3217607, “Discovery and structural modification of novel inhibitors of PTP1B inspired by the ACT fragment of scleritodermin A” (Medchemcomm, 2011) are IC50 values, retold here.

Test [1] concerns the target T1, Tyrosine-protein phosphatase non-receptor type 1 (Homo sapiens, UniProt P18031).
T1 sequence (P18031 whole entry): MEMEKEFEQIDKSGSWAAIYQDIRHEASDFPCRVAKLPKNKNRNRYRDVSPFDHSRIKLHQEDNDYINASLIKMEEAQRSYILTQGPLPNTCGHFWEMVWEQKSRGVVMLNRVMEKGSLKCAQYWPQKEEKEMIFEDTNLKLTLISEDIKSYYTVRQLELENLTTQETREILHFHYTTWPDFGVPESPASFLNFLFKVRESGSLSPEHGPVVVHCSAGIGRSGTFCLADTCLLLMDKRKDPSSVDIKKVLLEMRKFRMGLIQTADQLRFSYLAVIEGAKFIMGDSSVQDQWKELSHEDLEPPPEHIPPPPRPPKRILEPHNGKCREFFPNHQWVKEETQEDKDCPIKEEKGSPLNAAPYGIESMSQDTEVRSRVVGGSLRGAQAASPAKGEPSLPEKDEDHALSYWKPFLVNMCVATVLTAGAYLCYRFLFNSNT
In words: Inhibition of GST-tagged PTP1B (unknown origin) using pNPP as substrate measured for 2 mins by spectrophotometry.

Test [2] has as its target T2, Tyrosine-protein phosphatase non-receptor type 2 (Homo sapiens, UniProt P17706).
T2 sequence (P17706 whole entry): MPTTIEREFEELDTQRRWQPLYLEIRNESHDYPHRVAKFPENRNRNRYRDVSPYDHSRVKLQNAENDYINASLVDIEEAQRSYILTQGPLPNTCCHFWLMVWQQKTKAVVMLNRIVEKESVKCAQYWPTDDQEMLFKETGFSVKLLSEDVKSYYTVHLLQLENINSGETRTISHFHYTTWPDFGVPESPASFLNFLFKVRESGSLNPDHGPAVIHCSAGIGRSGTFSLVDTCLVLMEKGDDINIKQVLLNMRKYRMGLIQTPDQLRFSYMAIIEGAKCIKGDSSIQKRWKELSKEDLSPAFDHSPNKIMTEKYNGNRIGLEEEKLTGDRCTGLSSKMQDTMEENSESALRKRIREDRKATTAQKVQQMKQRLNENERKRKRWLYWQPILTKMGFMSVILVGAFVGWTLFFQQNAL
In words: Inhibition of TCPTP (unknown origin).

Test [3] addresses T3, M-phase inducer phosphatase 2 (Homo sapiens, UniProt P30305).
T3 sequence (P30305 whole entry): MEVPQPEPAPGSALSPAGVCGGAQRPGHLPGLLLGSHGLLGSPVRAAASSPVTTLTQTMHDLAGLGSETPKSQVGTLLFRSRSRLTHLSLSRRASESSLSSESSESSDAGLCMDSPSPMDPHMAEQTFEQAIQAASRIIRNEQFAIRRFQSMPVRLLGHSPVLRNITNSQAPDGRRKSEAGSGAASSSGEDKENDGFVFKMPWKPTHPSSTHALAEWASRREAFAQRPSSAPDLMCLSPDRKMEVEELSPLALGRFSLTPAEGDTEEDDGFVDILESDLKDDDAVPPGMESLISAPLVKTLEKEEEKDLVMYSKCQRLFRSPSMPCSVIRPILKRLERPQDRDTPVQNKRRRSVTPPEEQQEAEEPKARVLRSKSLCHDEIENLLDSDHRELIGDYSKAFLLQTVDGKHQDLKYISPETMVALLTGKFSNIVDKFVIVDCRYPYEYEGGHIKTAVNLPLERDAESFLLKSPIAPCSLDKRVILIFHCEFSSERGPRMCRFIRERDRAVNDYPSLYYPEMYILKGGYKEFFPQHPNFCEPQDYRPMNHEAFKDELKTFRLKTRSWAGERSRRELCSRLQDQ
In words: Inhibition of CDC25B (unknown origin) using 3-O-Methylfluorescein phosphate as substrate preincubated for 3 mins followed by substrate addition.

For test [4], the target named is Tyrosine-protein phosphatase non-receptor type 6 (Homo sapiens, UniProt P29350). In words: Inhibition of SHP1 (unknown origin) using 3-O-Methylfluorescein phosphate as substrate preincubated for 3 mins followed by substrate addition.
In test [5] the target is T4, Tyrosine-protein phosphatase non-receptor type 11 (Homo sapiens, UniProt Q06124).
T4 sequence (Q06124 whole entry): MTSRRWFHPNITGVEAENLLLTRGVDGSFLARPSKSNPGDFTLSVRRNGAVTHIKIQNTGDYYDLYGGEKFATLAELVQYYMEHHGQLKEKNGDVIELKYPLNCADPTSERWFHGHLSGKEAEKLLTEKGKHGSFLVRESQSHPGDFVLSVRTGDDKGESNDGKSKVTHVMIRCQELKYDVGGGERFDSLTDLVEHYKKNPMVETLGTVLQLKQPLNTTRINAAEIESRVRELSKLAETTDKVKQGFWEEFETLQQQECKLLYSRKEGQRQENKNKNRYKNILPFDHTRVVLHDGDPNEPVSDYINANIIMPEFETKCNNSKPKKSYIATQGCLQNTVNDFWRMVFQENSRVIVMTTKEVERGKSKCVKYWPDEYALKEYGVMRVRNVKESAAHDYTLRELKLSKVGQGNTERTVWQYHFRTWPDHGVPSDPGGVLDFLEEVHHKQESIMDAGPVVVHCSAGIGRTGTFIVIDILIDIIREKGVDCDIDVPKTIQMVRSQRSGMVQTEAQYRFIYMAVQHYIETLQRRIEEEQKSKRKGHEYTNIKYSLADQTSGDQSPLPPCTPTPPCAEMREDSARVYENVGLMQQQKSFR
In words: Inhibition of SHP2 (unknown origin) using 3-O-Methylfluorescein phosphate as substrate preincubated for 3 mins followed by substrate addition.

For test [6], the target named is Receptor-type tyrosine-protein phosphatase F (Homo sapiens, UniProt P10586). Kind of test: Inhibition of LAR (unknown origin) using 3-O-Methylfluorescein phosphate as substrate preincubated for 3 mins followed by substrate addition.

pIC50: −log10 of the molar value. Bounds are passed on as bounds.

Receptor-type tyrosine-protein phosphatase F, sequence (P10586 whole entry): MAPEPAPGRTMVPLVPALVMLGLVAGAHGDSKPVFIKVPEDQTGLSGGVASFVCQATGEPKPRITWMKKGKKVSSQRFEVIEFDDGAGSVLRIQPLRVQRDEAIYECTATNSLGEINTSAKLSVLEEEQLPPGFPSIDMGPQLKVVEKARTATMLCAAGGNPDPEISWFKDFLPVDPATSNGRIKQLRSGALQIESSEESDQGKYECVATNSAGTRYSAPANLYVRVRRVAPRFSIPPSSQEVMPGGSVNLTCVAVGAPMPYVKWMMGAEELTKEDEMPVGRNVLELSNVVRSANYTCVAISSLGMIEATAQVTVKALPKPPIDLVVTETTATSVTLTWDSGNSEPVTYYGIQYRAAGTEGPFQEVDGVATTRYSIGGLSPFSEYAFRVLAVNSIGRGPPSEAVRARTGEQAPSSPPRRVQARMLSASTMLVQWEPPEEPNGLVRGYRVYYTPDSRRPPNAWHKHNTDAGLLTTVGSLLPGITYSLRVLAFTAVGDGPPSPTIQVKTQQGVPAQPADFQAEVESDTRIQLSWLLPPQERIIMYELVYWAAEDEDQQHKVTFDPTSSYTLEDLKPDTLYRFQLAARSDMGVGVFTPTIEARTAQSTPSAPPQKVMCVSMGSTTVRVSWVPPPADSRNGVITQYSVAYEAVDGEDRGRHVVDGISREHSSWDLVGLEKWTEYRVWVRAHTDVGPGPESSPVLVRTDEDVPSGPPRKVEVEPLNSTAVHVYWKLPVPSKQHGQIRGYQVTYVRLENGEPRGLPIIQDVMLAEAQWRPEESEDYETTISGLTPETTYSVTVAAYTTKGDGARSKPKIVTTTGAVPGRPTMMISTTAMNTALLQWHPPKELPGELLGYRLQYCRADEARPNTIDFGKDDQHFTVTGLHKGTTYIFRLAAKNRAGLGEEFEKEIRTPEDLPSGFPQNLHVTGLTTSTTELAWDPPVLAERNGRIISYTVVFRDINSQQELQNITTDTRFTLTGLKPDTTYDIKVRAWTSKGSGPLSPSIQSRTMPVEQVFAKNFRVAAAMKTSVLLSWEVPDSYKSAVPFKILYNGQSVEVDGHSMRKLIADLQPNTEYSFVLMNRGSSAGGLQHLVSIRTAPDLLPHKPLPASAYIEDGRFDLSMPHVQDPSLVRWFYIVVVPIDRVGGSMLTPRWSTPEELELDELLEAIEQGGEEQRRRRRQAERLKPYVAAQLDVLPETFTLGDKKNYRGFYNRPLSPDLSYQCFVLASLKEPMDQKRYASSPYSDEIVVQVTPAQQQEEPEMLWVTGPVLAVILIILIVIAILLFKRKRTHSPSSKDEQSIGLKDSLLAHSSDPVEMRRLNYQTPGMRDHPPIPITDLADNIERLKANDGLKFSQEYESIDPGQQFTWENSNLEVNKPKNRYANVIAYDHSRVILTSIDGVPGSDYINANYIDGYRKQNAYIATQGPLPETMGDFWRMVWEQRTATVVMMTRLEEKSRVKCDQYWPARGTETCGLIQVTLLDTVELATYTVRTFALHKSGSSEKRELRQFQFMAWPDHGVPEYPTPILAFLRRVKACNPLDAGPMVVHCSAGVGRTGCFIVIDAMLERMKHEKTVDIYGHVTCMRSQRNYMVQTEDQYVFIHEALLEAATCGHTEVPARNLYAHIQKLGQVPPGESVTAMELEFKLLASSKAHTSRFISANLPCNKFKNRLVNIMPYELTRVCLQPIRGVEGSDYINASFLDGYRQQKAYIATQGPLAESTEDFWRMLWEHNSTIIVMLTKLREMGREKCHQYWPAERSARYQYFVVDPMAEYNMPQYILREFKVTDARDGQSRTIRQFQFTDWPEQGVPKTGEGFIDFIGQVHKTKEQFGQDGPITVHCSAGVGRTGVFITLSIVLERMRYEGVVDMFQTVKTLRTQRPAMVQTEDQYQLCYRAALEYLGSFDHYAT
Tyrosine-protein phosphatase non-receptor type 6, sequence (P29350 whole entry): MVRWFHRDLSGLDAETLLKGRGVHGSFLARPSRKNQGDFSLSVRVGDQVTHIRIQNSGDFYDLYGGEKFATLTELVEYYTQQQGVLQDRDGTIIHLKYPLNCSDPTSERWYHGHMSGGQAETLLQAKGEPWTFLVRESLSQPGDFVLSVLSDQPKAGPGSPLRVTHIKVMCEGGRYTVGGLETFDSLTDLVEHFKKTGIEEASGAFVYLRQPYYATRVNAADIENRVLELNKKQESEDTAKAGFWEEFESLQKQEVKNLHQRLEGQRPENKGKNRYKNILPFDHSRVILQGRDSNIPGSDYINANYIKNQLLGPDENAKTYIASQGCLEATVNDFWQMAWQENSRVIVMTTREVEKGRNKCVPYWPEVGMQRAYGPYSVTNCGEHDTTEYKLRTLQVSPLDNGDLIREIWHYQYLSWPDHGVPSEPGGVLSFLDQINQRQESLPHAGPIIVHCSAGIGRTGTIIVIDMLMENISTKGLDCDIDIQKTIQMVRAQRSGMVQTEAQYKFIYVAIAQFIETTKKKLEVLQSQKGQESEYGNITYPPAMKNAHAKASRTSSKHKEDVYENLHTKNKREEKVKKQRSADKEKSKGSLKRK

What is called pIC50 is −log10 of the IC50, conventionally taken in molar units. Lower therefore signals a large IC50. Regarding `C/C(=C/C(C)=C/c1csc([C@H](Cc2ccc(OCc3ccccc3)cc2)NC(=O)CCCc2c[nH]c3ccccc23)n1)C(=O)OCC(=O)O`, the pIC50 was 5.61 in test [1]; 4.96 in test [2]; 5.36 in test [3]; under 4.70 in test [4]; under 4.70 in test [5]; under 4.70 in test [6].
In the case of `CCOC(=O)COC(=O)/C(C)=C\C(C)=C\c1csc([C@H](Cc2ccc(OCc3ccccc3)cc2)NC(=O)CCc2c[nH]c3ccccc23)n1`, the pIC50 in test [1] was 5.27; in test [2], 4.89; in test [3] it was 5.44; in test [4] it was under 4.70; in test [5], under 4.70; in test [6], under 4.70.
